Patent US5593970A, “Heterocyclic anthracycline analogs” (priority 1994, dated 1997)
Structures can show the parent of a compound that is named as a salt. Where two headings read alike, the source gives them in different places.

What was measured:
Assay in all cases: Microculture tetrazolium assay
Format in all cases: cell-based
SKVLB = settings: for VLB/OV3: IC50 ratio SKVLB/SKOV3; for IC50: SKVLB
T47D = settings: Homo sapiens
SKOV3 = settings: Homo sapiens, SK-OV-3, SKOV3
HT29 = settings: Homo sapiens, HT-29, HT29
LOX = tested on: LOX

`CC(=O)OCC1([C@@H]2CC3=C(C(=O)c4c(cc5ccccc5c4OC(C)=O)C3=O)[C@@H](O[C@H]3C[C@H](NC(=O)C(F)(F)F)[C@H](O)[C@H](C)O3)O2)OCCCO1` [BCH-1178] was tested, and the VLB/OV3 (SKVLB) was 1.85, the IC50 (SKVLB; read-out: IC50) was 12.8 µM and the IC50 (T47D; read-out: IC50) was 7.06 µM. For the same compound, the IC50 (SKOV3; read-out: IC50) was 6.93 µM, the IC50 (HT29) was 5.64 µM and the IC50 (LOX; read-out: IC50) was 12.3 µM.
`CC(=O)OCC1(C2CC3=C(C(=O)c4c(cc5ccccc5c4OC(C)=O)C3=O)C(O[C@H]3C[C@H](NC(=O)C(F)(F)F)[C@H](O)[C@H](C)O3)O2)OCCCO1` (some centres unmarked) [BCH-1179] was tested, and the VLB/OV3 (SKVLB) was 1.58, the IC50 (SKVLB; read-out: IC50) was 8.31 µM and the IC50 (T47D; read-out: IC50) was 4.9 µM. It also gave an IC50 (SKOV3; read-out: IC50) of 5.25 µM, an IC50 (HT29; read-out: IC50) of 4.03 µM and an IC50 (LOX; read-out: IC50) of 10.9 µM.
Work on `C[C@@H]1O[C@@H](O[C@@H]2O[C@@H](C(=O)CO)CC3=C2C(=O)c2cc4ccccc4c(O)c2C3=O)C[C@H](NC(=O)C(F)(F)F)[C@@H]1O` [BCH-1182, (1 'S,1S,3R)-1,2,3,4,5,12-hexahydro-6-hydroxy-3-hydroxy-aceto-1-N-trifluoroacetyl-L-daunosamine-(2-oxo) naphthacene-5,12-dione] yielded a VLB/OV3 (SKVLB) of 3.12, an IC50 (SKVLB; read-out: IC50) of 73.7 µM and an IC50 (T47D; read-out: IC50) of 28.3 µM. It also gave an IC50 (SKOV3; read-out: IC50) of 23.6 µM, an IC50 (HT29; read-out: IC50) of 25.4 µM and an IC50 (LOX; read-out: IC50) of 1.98 µM.
For `C=CC1CC2=C(C(=O)c3cc4ccccc4c(O)c3C2=O)C(O[C@H]2C[C@H](N)[C@H](O)[C@H](C)O2)O1` (some centres unmarked) [BCH-1611], the VLB/OV3 (SKVLB) was 3.87, the IC50 (SKVLB; read-out: IC50) was 7.32 µM and the IC50 (T47D; read-out: IC50) was 2.16 µM. It also gave an IC50 (SKOV3; read-out: IC50) of 1.89 µM, an IC50 (HT29; read-out: IC50) of 2.81 µM and an IC50 (LOX; read-out: IC50) of 4.3 µM.
Work on `CC[C@@H]1CC2=C(C(=O)c3cc4ccccc4c(O)c3C2=O)[C@@H](O[C@H]2C[C@H](N)[C@H](O)[C@H](C)O2)O1` [BCH-1614, (1'S,1R,3R)-5,12-dioxo-3-ethyl-6-hydroxy-1-(2',3',6'-trideoxy-3'-amino-4'-hydroxy-L-lyxohexopyranose)-3,4,5,12-tetrahydroanthraceno[2,3-c]pyran hydrochloride] yielded a VLB/OV3 (SKVLB) of 1.64, an IC50 (SKVLB) of 1.67 µM and an IC50 (T47D) of 0.742 µM. For the same compound, the IC50 (SKOV3) was 1.02 µM, the IC50 (HT29) was 3.58 µM and the IC50 (LOX) was 1.09 µM.
Compound `CC(=O)[C@@H]1CC2=C(C(=O)c3cc4ccccc4c(O)c3C2=O)[C@@H](O[C@H]2C[C@H](NC(=O)C(F)(F)F)[C@H](I)[C@H](C)O2)O1` [BCH-1617] has a VLB/OV3 (SKVLB) of 1.38, an IC50 (SKVLB; read-out: IC50) of 2.96 µM and an IC50 (T47D; read-out: IC50) of 2.43 µM. The IC50 (SKOV3; read-out: IC50) was 2.15 µM, the IC50 (HT29; read-out: IC50) was 1.2 µM and the IC50 (LOX; read-out: IC50) was 3.04 µM.
With `CC(=O)[C@H]1CC2=C(C(=O)c3cc4ccccc4c(O)c3C2=O)[C@H](O[C@H]2C[C@H](NC(=O)C(F)(F)F)[C@H](I)[C@H](C)O2)O1` [BCH-1618] the VLB/OV3 (SKVLB) was “.098”, the IC50 (SKVLB; read-out: IC50) was 3.21 µM and the IC50 (T47D) was 3.66 µM. For the same compound, the IC50 (SKOV3; read-out: IC50) was 3.26 µM, the IC50 (HT29; read-out: IC50) was 3.63 µM and the IC50 (LOX; read-out: IC50) was 3.75 µM.
`CC(=O)Nc1nc([C@@H]2CC3=C(C(=O)c4cc5ccccc5c(O)c4C3=O)[C@@H](O[C@H]3C[C@H](NC(=O)C(F)(F)F)[C@H](O)[C@H](C)O3)O2)cs1` [BCH-1623, (1'S,1R,3S)-6-hydroxy-1-(2',3',6'-trideoxy-3'-trifluoroacetamido-L-lyxohexopyranose)-3-(2-aza-3-acetamido-thienyl)-5,12-dioxo-3,4,5,12-tetrahydro-anthraceno-[2,3-c]-pyran] was tested, and the VLB/OV3 (SKVLB) was 1.82, the IC50 (SKVLB; read-out: IC50) was 90.2 µM and the IC50 (T47D; read-out: IC50) was 42.8 µM. It also gave an IC50 (SKOV3; read-out: IC50) of 49.5 µM, an IC50 (HT29; read-out: IC50) of 32.1 µM and an IC50 (LOX; read-out: IC50) of 44.2 µM.
Compound `CC(=O)[C@@H]1Cc2c(O)c3c(c(O)c2[C@@H](O[C@H]2C[C@H](O)[C@H](O)[C@H](C)O2)O1)C(=O)c1ccccc1C3=O` [BCH-1624] has an IC50 (SKVLB; read-out: IC50) of 100 µM, an IC50 (T47D; read-out: IC50) of 100 µM and an IC50 (SKOV3; read-out: IC50) of 85 µM. It also gave an IC50 (HT29; read-out: IC50) of 100 µM and an IC50 (LOX; read-out: IC50) of 100 µM.
Compound `CC(=O)[C@H]1Cc2c(O)c3c(c(O)c2[C@H](O[C@H]2C[C@H](O)[C@H](O)[C@H](C)O2)O1)C(=O)c1ccccc1C3=O` [BCH-1625] has a VLB/OV3 (SKVLB) of 8.8, an IC50 (SKVLB; read-out: IC50) of 45 µM and an IC50 (T47D; read-out: IC50) of 34 µM. It also gave an IC50 (SKOV3; read-out: IC50) of 5.1 µM, an IC50 (HT29; read-out: IC50) of 61 µM and an IC50 (LOX; read-out: IC50) of 16 µM.
`CC(=O)O[C@@H]1[C@H](C)O[C@@H](OC2OC(C(=O)CO)CC3=C2C(=O)c2cc4ccccc4c(O)c2C3=O)C[C@@H]1OC(C)=O` (some centres unmarked) [BCH-1626] gave a VLB/OV3 (SKVLB) of 3.30, an IC50 (SKVLB; read-out: IC50) of 7.66 µM and an IC50 (T47D; read-out: IC50) of 5.39 µM. The IC50 (SKOV3; read-out: IC50) was 2.32 µM, the IC50 (HT29; read-out: IC50) was 5.18 µM and the IC50 (LOX; read-out: IC50) was 2.99 µM.
`CC(=O)C1CC2=C(C(=O)c3cc4ccccc4c(O)c3C2=O)C(OCCNC(=O)OC(C)(C)C)S1` (centres unmarked) [BCH-1627] was tested, and the VLB/OV3 (SKVLB) was 2.0, the IC50 (SKVLB; read-out: IC50) was 14 µM and the IC50 (T47D; read-out: IC50) was 7.1 µM. It also gave an IC50 (SKOV3; read-out: IC50) of 7.1 µM, an IC50 (HT29; read-out: IC50) of 11 µM and an IC50 (LOX; read-out: IC50) of 5 µM.
For `CC(=O)C1CC2=C(C(=O)c3cc4ccccc4c(O)c3C2=O)C(OCCN)S1` (centres unmarked) [BCH-1628], the VLB/OV3 (SKVLB) was 2.18, the IC50 (SKVLB) was 5.92 µM and the IC50 (T47D; read-out: IC50) was 2.89 µM. The IC50 (SKOV3; read-out: IC50) was 2.71 µM, the IC50 (HT29; read-out: IC50) was 3.43 µM and the IC50 (LOX; read-out: IC50) was 3.52 µM.
With `CC[C@H]1CC2=C(C(=O)c3cc4ccccc4c(O)c3C2=O)[C@H](O[C@H]2C[C@H](O)[C@H](O)[C@H](C)O2)O1` [BCH-1629] the VLB/OV3 (SKVLB) was 2.8, the IC50 (SKVLB) was 19 µM and the IC50 (T47D; read-out: IC50) was 9 µM. For the same compound, the IC50 (SKOV3; read-out: IC50) was 6.7 µM, the IC50 (HT29; read-out: IC50) was 22 µM and the IC50 (LOX; read-out: IC50) was 7.4 µM.
